{"source": "ChEMBL document CHEMBL1201862", "about": "“PubChem BioAssay data set” (2004)", "key": {"[1]": {"biological_target": "Disintegrin and metalloproteinase domain-containing protein 17 (Homo sapiens, UniProt P78536)", "sequence (P78536 whole entry, the tested form may be a part)": "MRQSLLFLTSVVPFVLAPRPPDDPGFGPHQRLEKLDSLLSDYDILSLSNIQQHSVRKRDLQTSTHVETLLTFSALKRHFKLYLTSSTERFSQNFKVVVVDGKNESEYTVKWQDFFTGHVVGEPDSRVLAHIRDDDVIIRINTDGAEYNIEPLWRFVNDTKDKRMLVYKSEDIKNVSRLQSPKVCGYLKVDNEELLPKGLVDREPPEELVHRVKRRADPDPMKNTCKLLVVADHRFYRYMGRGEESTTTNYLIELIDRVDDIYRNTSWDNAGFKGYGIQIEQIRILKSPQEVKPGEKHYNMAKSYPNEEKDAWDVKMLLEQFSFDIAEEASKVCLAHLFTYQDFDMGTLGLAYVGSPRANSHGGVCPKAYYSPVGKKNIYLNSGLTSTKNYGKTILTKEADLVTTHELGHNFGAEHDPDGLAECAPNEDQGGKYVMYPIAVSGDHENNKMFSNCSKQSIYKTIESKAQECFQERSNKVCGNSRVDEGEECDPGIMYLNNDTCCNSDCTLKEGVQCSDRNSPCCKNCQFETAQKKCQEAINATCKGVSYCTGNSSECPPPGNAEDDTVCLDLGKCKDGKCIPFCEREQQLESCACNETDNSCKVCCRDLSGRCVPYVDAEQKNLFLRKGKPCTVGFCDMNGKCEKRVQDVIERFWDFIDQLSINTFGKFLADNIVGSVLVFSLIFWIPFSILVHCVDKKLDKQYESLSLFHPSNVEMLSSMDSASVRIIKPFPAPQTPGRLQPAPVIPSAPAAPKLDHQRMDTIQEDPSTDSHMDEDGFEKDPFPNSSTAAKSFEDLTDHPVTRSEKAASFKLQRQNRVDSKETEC", "experiment": "inhibition of ADAM17 substrate cleavage – biochemical, quenched FRET substrate, counter-screen for ADAM10 exosite inhibitor project, dose response (AID 743253)"}, "[2]": {"experiment": "potency of ADAM10 substrate cleavage blockers – biochemical, QFRET, dose response (AID 743254);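 further: EDANS fluorescence gain as the protease cuts the substrate; inhibitor potency against ADAM10 proteolytic activity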"}, "[3]": {"biological_target": "Oxysterols receptor LXR-beta (Homo sapiens, UniProt P55055)", "sequence (P55055 whole entry)": "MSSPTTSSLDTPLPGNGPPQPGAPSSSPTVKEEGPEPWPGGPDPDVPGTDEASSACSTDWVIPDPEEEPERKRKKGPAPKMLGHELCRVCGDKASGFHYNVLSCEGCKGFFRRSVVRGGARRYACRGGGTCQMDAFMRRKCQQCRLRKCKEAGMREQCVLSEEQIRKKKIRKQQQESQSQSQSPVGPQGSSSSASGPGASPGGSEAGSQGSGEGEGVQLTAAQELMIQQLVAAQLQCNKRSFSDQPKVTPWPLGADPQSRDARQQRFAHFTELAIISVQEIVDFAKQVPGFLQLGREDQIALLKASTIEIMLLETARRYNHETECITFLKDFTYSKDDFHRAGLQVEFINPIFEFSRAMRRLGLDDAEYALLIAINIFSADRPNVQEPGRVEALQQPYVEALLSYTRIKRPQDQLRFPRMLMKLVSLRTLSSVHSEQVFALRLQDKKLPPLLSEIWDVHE", "type": "functional, cell-based"}, "Beta-lactamase [4]": {"biological_target": "T1, Beta-lactamase (Pseudomonas aeruginosa, UniProt Q79MP6)", "T1 sequence (Q79MP6 whole entry)": "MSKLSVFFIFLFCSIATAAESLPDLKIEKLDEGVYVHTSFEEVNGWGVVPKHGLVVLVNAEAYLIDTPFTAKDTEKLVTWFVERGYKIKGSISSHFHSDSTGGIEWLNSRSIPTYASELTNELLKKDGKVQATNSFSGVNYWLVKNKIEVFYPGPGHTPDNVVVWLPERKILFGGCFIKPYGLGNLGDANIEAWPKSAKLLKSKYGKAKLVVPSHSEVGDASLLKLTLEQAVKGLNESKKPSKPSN", "experiment": "inhibition of IMP-1 beta-lactamase activity – biochemical, epi-absorbance, selectivity assay for VIM-2 inhibitor project, dose response (AID 1920)"}, "Beta-lactamase [5]": {"biological_target": "T1, Beta-lactamase", "experiment": "[…] counterscreen for selective VIM-2 inhibitors: dose response biochemical high throughput screening assay to identify inhibitors of IMP-1 metallo-beta-lactamase."}, "Beta-lactamase [6]": {"biological_target": "Beta-lactamase (Salmonella choleraesuis (strain SC-B67), UniProt Q5J463)", "sequence (Q5J463 whole entry)": "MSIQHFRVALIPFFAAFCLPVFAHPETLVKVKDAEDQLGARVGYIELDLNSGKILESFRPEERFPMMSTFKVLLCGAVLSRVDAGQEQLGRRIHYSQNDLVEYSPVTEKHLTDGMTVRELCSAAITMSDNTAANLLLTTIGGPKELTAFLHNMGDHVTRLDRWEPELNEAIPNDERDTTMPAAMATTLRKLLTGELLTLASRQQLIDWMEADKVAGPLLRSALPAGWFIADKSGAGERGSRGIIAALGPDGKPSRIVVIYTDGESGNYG", "experiment": "Epi-absorbance-based counterscreen for selective VIM-2 inhibitors: dose response biochemical high throughput screening assay to identify inhibitors of TEM-1 serine-beta-lactamase."}, "Large T antigen": {"biological_target": "Large T antigen (Simian virus 40, UniProt P03070)", "sequence (P03070 whole entry)": "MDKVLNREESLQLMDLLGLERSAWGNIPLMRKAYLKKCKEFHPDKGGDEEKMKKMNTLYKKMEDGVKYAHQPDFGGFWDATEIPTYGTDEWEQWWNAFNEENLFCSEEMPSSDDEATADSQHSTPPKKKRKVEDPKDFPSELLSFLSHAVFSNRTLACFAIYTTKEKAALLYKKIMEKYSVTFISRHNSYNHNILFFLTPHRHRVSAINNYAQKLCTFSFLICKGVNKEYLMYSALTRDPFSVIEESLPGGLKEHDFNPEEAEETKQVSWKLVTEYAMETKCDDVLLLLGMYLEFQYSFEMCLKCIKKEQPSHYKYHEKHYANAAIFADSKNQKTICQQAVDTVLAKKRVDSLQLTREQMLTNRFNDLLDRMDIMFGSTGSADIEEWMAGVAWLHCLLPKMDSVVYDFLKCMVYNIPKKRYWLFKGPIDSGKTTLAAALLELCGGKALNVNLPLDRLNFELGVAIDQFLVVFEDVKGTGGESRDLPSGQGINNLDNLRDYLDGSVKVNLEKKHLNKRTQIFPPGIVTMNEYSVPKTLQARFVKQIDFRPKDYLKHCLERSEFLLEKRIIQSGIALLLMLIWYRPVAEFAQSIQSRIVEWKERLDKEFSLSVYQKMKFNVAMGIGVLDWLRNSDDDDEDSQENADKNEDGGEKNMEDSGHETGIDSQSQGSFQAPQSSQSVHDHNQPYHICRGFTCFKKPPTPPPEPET", "type": "functional, Betapolyomavirus macacae"}, "[7]": {"biological_target": "T2, Sentrin-specific protease 1 (Homo sapiens, UniProt Q9P0U3)", "T2 sequence (Q9P0U3 whole entry, the tested form may be a part)": "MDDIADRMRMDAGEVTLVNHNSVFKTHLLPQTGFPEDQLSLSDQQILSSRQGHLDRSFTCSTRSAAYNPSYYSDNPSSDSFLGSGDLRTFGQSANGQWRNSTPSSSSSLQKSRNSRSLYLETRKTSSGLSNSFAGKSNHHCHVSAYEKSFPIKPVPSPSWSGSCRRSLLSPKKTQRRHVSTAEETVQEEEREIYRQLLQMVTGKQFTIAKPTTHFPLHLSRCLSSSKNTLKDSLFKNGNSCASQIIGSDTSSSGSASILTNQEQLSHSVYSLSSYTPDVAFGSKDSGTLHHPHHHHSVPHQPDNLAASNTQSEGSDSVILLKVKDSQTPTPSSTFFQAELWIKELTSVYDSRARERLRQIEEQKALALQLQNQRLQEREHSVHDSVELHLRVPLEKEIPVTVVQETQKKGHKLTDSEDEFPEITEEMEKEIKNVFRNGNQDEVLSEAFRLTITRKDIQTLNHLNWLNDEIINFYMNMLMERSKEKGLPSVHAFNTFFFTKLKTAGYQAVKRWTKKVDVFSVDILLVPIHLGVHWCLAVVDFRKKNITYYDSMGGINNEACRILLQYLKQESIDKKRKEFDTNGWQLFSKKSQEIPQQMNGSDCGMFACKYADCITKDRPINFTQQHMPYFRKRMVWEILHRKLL", "experiment": "SENP1 catalytic domain blockers, concentration series – biochemical, kinetic FRET, dose response (AID 651697)", "type": "functional", "settings": "read-out: IC50_Mean"}, "[8]": {"biological_target": "T2, Sentrin-specific protease 1", "experiment": "Dose response confirmation of small molecule inhibitors of the catalytic domain of the SUMO protease, SENP1 in a FRET assay.", "type": "functional", "settings": "read-out: IC50_Mean"}, "Beta-galactosidase": {"biological_target": "Beta-galactosidase (Escherichia coli, UniProt Q8VNN2)", "sequence (Q8VNN2 whole entry)": "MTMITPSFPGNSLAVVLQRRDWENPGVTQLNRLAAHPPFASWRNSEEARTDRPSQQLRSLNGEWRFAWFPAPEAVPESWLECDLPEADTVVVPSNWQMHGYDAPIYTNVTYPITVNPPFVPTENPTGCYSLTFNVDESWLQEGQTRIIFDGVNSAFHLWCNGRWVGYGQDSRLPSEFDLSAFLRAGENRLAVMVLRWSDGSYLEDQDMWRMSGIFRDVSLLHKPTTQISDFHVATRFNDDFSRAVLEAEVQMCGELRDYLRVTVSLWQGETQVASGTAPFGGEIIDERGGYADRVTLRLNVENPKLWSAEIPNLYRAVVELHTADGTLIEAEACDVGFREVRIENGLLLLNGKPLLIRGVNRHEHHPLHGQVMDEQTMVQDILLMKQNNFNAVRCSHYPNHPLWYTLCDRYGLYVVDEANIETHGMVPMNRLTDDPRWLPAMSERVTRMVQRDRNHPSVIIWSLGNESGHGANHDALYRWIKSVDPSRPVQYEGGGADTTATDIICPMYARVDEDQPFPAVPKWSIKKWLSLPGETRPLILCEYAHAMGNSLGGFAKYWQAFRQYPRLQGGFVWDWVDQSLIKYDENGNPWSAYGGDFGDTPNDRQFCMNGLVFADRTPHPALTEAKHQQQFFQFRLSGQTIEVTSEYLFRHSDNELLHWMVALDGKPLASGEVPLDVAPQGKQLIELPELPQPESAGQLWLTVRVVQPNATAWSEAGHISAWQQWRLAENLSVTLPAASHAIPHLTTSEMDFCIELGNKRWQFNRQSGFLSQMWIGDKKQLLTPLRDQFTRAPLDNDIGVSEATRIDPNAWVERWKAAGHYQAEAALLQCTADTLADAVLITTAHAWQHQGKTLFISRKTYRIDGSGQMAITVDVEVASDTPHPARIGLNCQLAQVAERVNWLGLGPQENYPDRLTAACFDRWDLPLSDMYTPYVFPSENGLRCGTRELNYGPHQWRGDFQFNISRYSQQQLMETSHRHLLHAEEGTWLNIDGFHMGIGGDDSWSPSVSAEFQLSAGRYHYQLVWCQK", "experiment": "Dose response counterscreen for EBI2 assay utilizing the enzyme, b-galactosidase.", "type": "functional"}, "[9]": {"experiment": "viability loss in HepG2 hepatoma cells – cell-based, ATP luminescence, cherry-pick, activator set 2, cytotoxicity control, dose response (AID 1053143)", "type": "functional"}, "[10]": {"experiment": "ATP-based viability loss in HEK293T cells – cell-based, CellTiter-Glo luminescence, cherry-picked samples, set 4, cytotoxicity control, dose response (AID 743441)", "type": "functional", "settings": "HEK293"}, "[11]": {"experiment": "Luminescence Cell-Based Dose Response HTS to Identify Activators of Luciferase Translation or Activity in H4 […] Cells. [Related pubchem assays: 1829 (Project Summary), 1814 (Primary HTS)]", "type": "functional"}, "[12]": {"experiment": "MIN6 cell viability loss – mouse insulinoma, cytotoxicity control, dose response (AID 2122);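 further: confirmatory high-throughput counterscreen run to flag cytotoxic compounds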", "type": "functional"}, "[13]": {"experiment": "decrease of insulin promoter-GFP reporter – imaging, high-content screening, mouse beta cells (AID 1628)", "type": "functional", "settings": "MIN6"}, "H4": {"test_system": "H4", "experiment": "Luminescence Cell-Based Dose Response HTS to Identify Activators of 5'UTR Stem-Loop Driven Prion Protein mRNA Translation in H4 Neuroglioblastoma Cells. [Related pubchem assays: 1829 (Project Summary), 1814 (Primary HTS)]", "type": "functional", "settings": "Homo sapiens"}, "Protein Wnt-3a": {"biological_target": "Protein Wnt-3a (Mus musculus, UniProt P27467)", "sequence (P27467 whole entry)": "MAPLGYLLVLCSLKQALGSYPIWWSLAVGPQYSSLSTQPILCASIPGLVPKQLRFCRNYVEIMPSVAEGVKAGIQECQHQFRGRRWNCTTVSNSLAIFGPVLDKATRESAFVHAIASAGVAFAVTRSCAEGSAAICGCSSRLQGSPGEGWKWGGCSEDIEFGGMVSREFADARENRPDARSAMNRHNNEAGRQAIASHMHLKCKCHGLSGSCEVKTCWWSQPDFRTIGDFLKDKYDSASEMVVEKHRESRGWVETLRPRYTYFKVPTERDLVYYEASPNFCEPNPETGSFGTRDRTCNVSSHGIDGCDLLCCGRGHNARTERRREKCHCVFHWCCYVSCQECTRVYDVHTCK", "experiment": "antagonism of Wnt3a pathway luciferase reporter – Wnt-LIGHT cells, luminescence, selectivity assay for Gli-SUFU antagonist project, dose response (AID 651570);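 further: Wnt-LIGHT reporter cells stimulated with conditioned medium from Wnt3a-producing cells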", "type": "functional", "settings": "read-out: IC50_Mean"}, "[14]": {"biological_target": "T3, Small ubiquitin-related modifier 1 (Homo sapiens, UniProt P63165)", "T3 sequence (P63165 whole entry)": "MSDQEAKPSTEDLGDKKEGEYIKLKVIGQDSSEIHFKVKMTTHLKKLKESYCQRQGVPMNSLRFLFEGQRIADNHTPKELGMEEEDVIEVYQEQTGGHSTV", "experiment": "SUMO1 protein interaction blockers, potency – biochemical, fluorescence polarization, uHTS hits, dose response (AID 624382)", "type": "functional", "settings": "read-out: IC50_Mean"}, "[15]": {"biological_target": "T3, Small ubiquitin-related modifier 1", "experiment": "SUMO1 protein-protein binding blockers, potency – biochemical, FRET, dose response (AID 624383)", "type": "functional", "settings": "read-out: IC50_Mean"}, "[16]": {"biological_target": "T4, Small ubiquitin-related modifier 2 (Homo sapiens, UniProt P61956)", "T4 sequence (P61956 whole entry)": "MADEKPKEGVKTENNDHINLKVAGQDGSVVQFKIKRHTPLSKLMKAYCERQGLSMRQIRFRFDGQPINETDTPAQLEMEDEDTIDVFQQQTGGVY", "experiment": "disruption of SUMO2 interaction with SIM peptide – biochemical, fluorescence polarization, uHTS hits, selectivity assay for SUMO1 interaction inhibitor project, dose response (AID 624385)", "type": "functional", "settings": "read-out: IC50_Mean"}, "[17]": {"biological_target": "T4, Small ubiquitin-related modifier 2", "experiment": "SUMO2 binding disruption by SUMO1 hits – biochemical, FRET, human SUMO2, uHTS hits, selectivity assay for SUMO1 interaction inhibitor project, dose response (AID 624384)", "type": "functional", "settings": "read-out: IC50_Mean"}, "Aminopeptidase N": {"biological_target": "T5, Aminopeptidase N (Plasmodium falciparum FcB1/Columbia, UniProt O96935)", "T5 sequence (O96935 whole entry)": "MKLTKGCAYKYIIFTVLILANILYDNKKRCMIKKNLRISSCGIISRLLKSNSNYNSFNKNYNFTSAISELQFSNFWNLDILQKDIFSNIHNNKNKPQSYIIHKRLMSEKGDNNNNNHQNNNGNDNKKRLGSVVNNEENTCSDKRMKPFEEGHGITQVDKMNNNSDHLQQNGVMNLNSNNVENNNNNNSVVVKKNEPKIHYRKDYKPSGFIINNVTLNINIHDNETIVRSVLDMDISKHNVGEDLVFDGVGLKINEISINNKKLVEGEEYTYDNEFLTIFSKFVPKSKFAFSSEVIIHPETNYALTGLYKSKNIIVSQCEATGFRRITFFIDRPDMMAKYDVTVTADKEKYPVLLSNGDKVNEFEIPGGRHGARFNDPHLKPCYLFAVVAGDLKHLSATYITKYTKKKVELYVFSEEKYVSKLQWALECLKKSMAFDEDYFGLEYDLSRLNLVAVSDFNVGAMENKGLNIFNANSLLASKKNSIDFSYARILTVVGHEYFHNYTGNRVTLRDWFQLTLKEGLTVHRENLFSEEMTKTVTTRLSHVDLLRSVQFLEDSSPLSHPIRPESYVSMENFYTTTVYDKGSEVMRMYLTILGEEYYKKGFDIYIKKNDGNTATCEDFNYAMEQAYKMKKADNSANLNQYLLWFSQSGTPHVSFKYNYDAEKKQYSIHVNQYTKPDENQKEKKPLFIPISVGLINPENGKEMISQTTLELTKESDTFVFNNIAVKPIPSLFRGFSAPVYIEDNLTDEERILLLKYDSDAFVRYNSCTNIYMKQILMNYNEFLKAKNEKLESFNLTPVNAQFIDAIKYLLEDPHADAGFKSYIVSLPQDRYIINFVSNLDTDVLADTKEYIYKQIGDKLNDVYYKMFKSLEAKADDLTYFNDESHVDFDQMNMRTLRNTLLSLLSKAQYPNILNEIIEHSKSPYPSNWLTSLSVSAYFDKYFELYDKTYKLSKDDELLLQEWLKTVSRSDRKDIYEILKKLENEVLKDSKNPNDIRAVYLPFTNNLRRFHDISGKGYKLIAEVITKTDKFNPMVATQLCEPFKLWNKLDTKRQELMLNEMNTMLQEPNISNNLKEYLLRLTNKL", "experiment": "malaria alanyl aminopeptidase activity blockers – biochemical, fluorogenic H-Leu-NHMec substrate, 1536-well (AID 1445)", "set-up": "species or system Plasmodium falciparum 3D7, 3D7"}}, "note": "Calls of active or inactive are those of the source.", "data": [{"smiles": "O=S(=O)(NCC(Nc1ccc(Cl)cc1)c1ccccc1)c1ccccc1", "note": "(stereo not drawn)", "values": [{"measurement": "IC50", "setting": "[1]", "result": "> 69.5 µM (inactive)"}, {"measurement": "IC50", "setting": "[2]", "result": "11.4 µM (inactive)"}]}, {"smiles": "Cc1ccc(SCCN2CCC(C)CCC2=O)cc1", "note": "(stereo not drawn)", "values": [{"measurement": "EC50", "setting": "[3]", "result": "> 67.5 µM (inactive)"}]}, {"smiles": "Cc1ccc(-c2nnc(S)n2-c2ccccc2)cc1", "values": [{"measurement": "IC50", "setting": "Beta-lactamase [4]", "result": "> 59.6 µM (inactive)"}, {"measurement": "IC50", "setting": "Beta-lactamase [5]", "result": "> 59.6 µM (inactive)"}, {"measurement": "IC50", "setting": "Beta-lactamase [6]", "result": "> 59.6 µM (inactive)"}]}, {"smiles": "Cc1cccn2c(=O)c(/C=C(\\C#N)C(N)=O)c(Oc3ccccc3)nc12", "values": [{"measurement": "AC50", "setting": "cells", "result": "8.22 µM (active)"}]}, {"smiles": "Cc1ccc(-c2nc3ncccn3c2NC2CCCCC2)o1", "values": [{"measurement": "IC50", "setting": "Large T antigen", "result": "25.9 µM (active)"}, {"measurement": "IC50", "setting": "[7]", "result": "19.7 µM (active)"}, {"measurement": "IC50", "setting": "[8]", "result": "8.98 µM (active)"}]}, {"smiles": "Cc1ccc(CNC(=O)C2CCN(S(=O)(=O)c3ccc(Br)s3)CC2)cc1", "values": [{"measurement": "IC50", "setting": "Beta-galactosidase", "result": "> 80 µM (inactive)"}]}, {"smiles": "CC(=O)Nc1cc2nn(-c3ccccc3)nc2cc1Cl", "values": [{"measurement": "AC50", "setting": "[9]", "result": "4.99 µM (active)"}]}, {"smiles": "COc1ccc(Cn2c(-c3ccc(Cl)cc3)c[n+]3ccccc23)cc1", "values": [{"measurement": "AC50", "setting": "[10]", "result": "39.3 µM (active)"}, {"measurement": "EC50", "setting": "[11]", "result": "> 120 µM (not active)"}, {"measurement": "IC50", "setting": "[12]", "result": "1.02 µM (active)"}, {"measurement": "IC50", "setting": "[13]", "result": "1.35 µM (active)"}, {"measurement": "EC50", "setting": "H4", "result": "> 120 µM (not active)"}, {"measurement": "IC50", "setting": "Protein Wnt-3a", "result": "36.9 µM (inactive)"}]}, {"smiles": "Nc1cccc2[nH]c(C(F)(F)F)nc12", "values": [{"measurement": "IC50", "setting": "[14]", "result": "26.8 µM (inactive)"}, {"measurement": "IC50", "setting": "[15]", "result": "37 µM (inactive)"}, {"measurement": "IC50", "setting": "[16]", "result": "29.8 µM (inactive)"}, {"measurement": "IC50", "setting": "[17]", "result": "10.4 µM (active)"}, {"measurement": "IC50", "setting": "Aminopeptidase N", "result": "80.8 µM (active)"}]}]}
